Columns and labels:
Assay type in all cases: cell-based
control cell lines = assay: MTS cell proliferation assay, Table 6, mean; details: HeLa, HCT116, LS174T; 10 μM, 72 h
Excerpt: (§1) Control cell lines used were HeLa cells (cell growth not controlled by canonical Wnt signalling) and colorectal cancer cell lines LS174T and HCT116 (with mutant β-catenin N-terminal phosphorylation sites). Target cell lines used were colorectal cancer cell lines WiDr, LoVo, HCT-8, HCT-15, COL0205, DLD-1, HT-29, SW620, SW1463, SW480 which all carry a mutant APC gene. Target cells, along with L Wnt3a-expressing cells and HEK293 cells, were purchased from ATCC (American Type Culture Collection) and maintained according to the supplier's recommendations. Wnt3a containing conditioned media (Wnt3a-CM) from L Wnt3a expressing cells was harvested as described by ATCC.
(§2) For the experiment giving the results shown in Table 6, cells were exposed to cell culture medium (including 10% FBS) containing 10 μM of the compound to be tested 24 hours after seeding (3000 cells on 96-well plates). Medium was changed daily. After 72 hours, an MTS assay (CellTiter 96® AQueous Non-Radioactive Cell Proliferation Assay—Promega) was carried out according to the standard procedure. 0.1% DMSO was used as a control.
(§3) The quantity of reduced MTS product (as measured by the absorbance at 490 nm) is directly proportional to the number of living cells in the culture and thus allows a direct comparison of cell proliferation in each case. DMSO was used as a control. The following formula was used to determine single well relative A490 sample values: ((Sample A490−Average A490t0)*100)/(Average A490t720.1% DMSO control−Average A490t0)
(§4) Data shown are A490-percentage values relative to the DMSO control, calculated as described above, and represent averages from 2 to 4 independent experiments (except SW1463 cells treated with IWR-1 which reports only a single experiment). Compounds IWR-1 and XAV939 are known Wnt pathway inhibitors.

APC mutant cell lines = assay: MTS cell proliferation assay, Table 6, mean; details: 10 μM, 72 h; for Ratio of means: APC mutant cell lines versus control cell lines; for Mean proliferation (APC mutant cell lines): ten APC mutant colorectal lines
Excerpt: as §1, §2, §3, §4

canonical Wnt signaling [1] = assay: IC50 in STF/REN HEK293 cells, 50% Wnt3a-CM; details: Homo sapiens; STF/REN HEK293, 50% Wnt3a-CM, 24 h
Method: IC50 values were calculated using STF/REN HEK293 cells prepared essentially according to Example 22. Briefly, HEK293 cells (80,000 cells per well) were seeded in 48-well plates coated with poly-L lysine. 24 hours after seeding, the cells were incubated for an additional 24 hours with various compound concentrations in 50% Wnt3a-CM. After compound exposure, the cells were lysed and the firefly luciferase and Renilla activities were measured on a 20/20n Luminometer (Turner BioSystems) as described in the Dual-Glo™ Luciferase Assay System Technical Manual (Promega).
(§5) XLfit (idbs) was used to determine the IC50 and GI50 values in inhibition experiments. The data were fit to the following formulae:
IC50: Langmuir Binding Isotherm: fit=((A+(B*x))+(((C−B)*(1−exp((−1*D)*x)))/D)) res=(y−fit)

canonical Wnt signaling [2] = assay: ST-Luc (SuperTOPFlash) Luciferase assay in HEK293 cells, 30% Wnt3a-CM; details: Homo sapiens, HEK293; 10 μM compound, 30% Wnt3a-CM, 24 h; relative to DMSO control
Method: Inhibition of Wnt signaling by compound No. 1 was quantified in vitro using a Luciferase assay in HEK293 cells transiently transfected with SuperTOPFlash plasmid (ST-Luc) (Veeman M T et al., Curr. Biol. 13: 680-685, 2003) at concentrations from 0.1-10 μM. HEK293 cells were purchased from ATCC (American Type Culture Collection) and maintained according to suppliers recommendations.
Transfection was performed using 80000 HEK293 cells seeded in 48-well plates coated with poly-L lysine. After 24 hours, 0.25 μg total plasmid DNA (0.23 μg SuperTOPFlash+0.02 μg pRL-TK (Renilla)—Promega) and 0.75 μl FuGENE6 (Roche) was combined in a total volume in 25 μl Opti-MEM® (Invitrogen) as described by the manufacturer (Roche). The transfection mixture was added to the plated cells and media were changed after 24 hours.
The Luciferase assay was performed by incubating transfected cells for 24 hours with various concentrations of compound No. 1 in 30% Wnt3a-CM (Wnt3a containing conditioned medium from L Wnt3a cells was harvested as described by ATCC). All treated reporter cells were finally lysed and the firefly luciferase and Renilla activities were measured on a 20/20n Luminometer (Turner BioSystems) as described in the Dual-Glo™ Luciferase Assay System Technical Manual (Promega).
HEK293 cells were transfected, grown and assayed as described in Example 22. 24 hours after seeding, the cells were incubated for an additional 24 hours with 10 μM concentrations of compounds in 30% Wnt3a-CM.
The percent activities shown in Table 3 are calculated relative to DMSO as a control. Some values shown are averages of multiple measurements. Compound XAV939 (Novartis; Huang et al., Nature (2009), 461, pp. 614-20) which is used as a positive control, has an activity of 7%.

LoVo = assay: MTS cell proliferation assay, Table 6; details: 10 μM, 72 h, relative to DMSO control
Excerpt: as §1, §2, §3, §4

SW480 = assay: MTS cell proliferation assay, Table 6; details: 10 μM, 72 h, relative to DMSO control
Excerpt: as §1, §2, §3, §4

DLD-1 = assay: MTS cell proliferation assay, Table 6; details: 10 μM, 72 h, relative to DMSO control
Excerpt: as §1, §2, §3, §4

WiDr = assay: MTS cell proliferation assay, Table 6; details: 10 μM, 72 h, relative to DMSO control
Excerpt: as §1, §2, §3, §4

HCT-8 = assay: MTS cell proliferation assay, Table 6; details: 10 μM, 72 h, relative to DMSO control
Excerpt: as §1, §2, §3, §4

HCT116 = assay: MTS cell proliferation assay, Table 6; details: HCT116 (control); 10 μM, 72 h; relative to DMSO control
Excerpt: as §1, §2, §3, §4

HeLa cells = assay: MTS cell proliferation assay, Table 6; details: HeLa (control); 10 μM, 72 h; relative to DMSO control
Excerpt: as §1, §2, §3, §4

COLO205 = assay: MTS cell proliferation assay, Table 6; details: 10 μM, 72 h, relative to DMSO control
Excerpt: as §1, §2, §3, §4

HT-29 = assay: MTS cell proliferation assay, Table 6; details: 10 μM, 72 h, relative to DMSO control
Excerpt: as §1, §2, §3, §4

HCT-15 = assay: MTS cell proliferation assay, Table 6; details: 10 μM, 72 h, relative to DMSO control
Excerpt: as §1, §2, §3, §4

LS174T = assay: MTS cell proliferation assay, Table 6; details: LS174T (control); 10 μM, 72 h; relative to DMSO control
Excerpt: as §1, §2, §3, §4

SW620 = assay: MTS cell proliferation assay, Table 6; details: 10 μM, 72 h, relative to DMSO control
Excerpt: as §1, §2, §3, §4

SW1463 = assay: MTS cell proliferation assay, Table 6; details: 10 μM, 72 h, relative to DMSO control
Excerpt: as §1, §2, §3, §4

SW480 cells = assay: Growth inhibition (GI50) MTS assay; details: Homo sapiens, 72 h
Method: Growth inhibition curves were prepared using SW480 cells, prepared essentially according to Example 23. SW480 cells (3000 cells per well) were seeded on 96 well plates (eight replicates per treatment). 24 hours later and daily thereafter, cell culture media (including 10% FBS) was mixed with various compound concentrations or with 0.1% DMSO vehicle and then added to the wells. Sixteen wells of seeded control cells, defining incubation time zero (to =24 hour after cell seeding), were incubated with […] substrate in 100 μl of phenol-free D-MEM (Invitrogen) for 2 hours, as described in the CellTiter 96® AQueous Non-Radioactive Cell Proliferation Assay protocol (MTS, Promega). The A490 was recorded. The treatment samples were likewise measured after 72 hours. The following formula was used to determine the single well relative A490 sample values: ((Sample A490−Average A490t0)*100)/(Average A490t720.1% DMSO control−Average A490t0)
as §5
GI50: Eadie-Hofstee Model: fit=(A+((B*x)/((C*(D+1))+x))) inv=(((y−A)*(C*(D+1)))/((A+B)−y)) res=(y−fit)

[3] = tested on: SW480 colon carcinoma cells; assay: MTS cell proliferation assay, Table 5; details: Homo sapiens; SW480, 10 μM, 72 h; relative to DMSO control; read-out: Cell proliferation (%) for test compounds
Method: For the experiment giving the results shown in Table 5, cells (3000 per well) were seeded on 96 well plates (eight replicates per treatment). After 24 hours, and daily thereafter, cell culture medium (including 10% FBS) was mixed with 10 μM compounds or with 0.1% DMSO vehicle and then added to the wells. Sixteen wells of seeded control cells, defining incubation time zero (t0=24 hour after cell seeding), were incubated with 20 μl substrate in 100 μl phenol free D-MEM (Invitrogen) for 2 hours, as described in the CellTiter 96® AQueous Non-Radioactive Cell Proliferation Assay protocol (Promega). The A490 was recorded. The treatment samples were likewise measured after 72 hours.
as §3
The proliferation of SW480 cells (in percent) is the A492 value relative to that of the DMSO control.

SMILES	IC50 (canonical Wnt signaling [1])	GI50 (SW480 cells)	Mean proliferation (control cell lines) (control cell lines)	Ratio of means (APC mutant cell lines)	Mean proliferation (APC mutant cell lines) (APC mutant cell lines)	activity at 10 µM (canonical Wnt signaling [2])	Cell proliferation (%) (LoVo)	Cell proliferation (%) (SW480)	Cell proliferation (%) (DLD-1)	Cell proliferation (%) (WiDr)	Cell proliferation (%) (HCT-8)	Cell proliferation (%) (HCT116)	Cell proliferation (%) (HeLa cells)	Cell proliferation (%) (COLO205)	Cell proliferation (%) (HT-29)	Cell proliferation (%) (HCT-15)	Cell proliferation (%) (LS174T)	Cell proliferation (%) (SW620)	Cell proliferation (%) (SW1463)	activity at 10 µM [3]
Cc1ccc(-c2noc(CSc3nnc(-c4ccncc4)n3-c3cccc(Cl)c3C)n2)cc1 [Compound 10]	3300 nM	13.5 µM				10.1%														
COc1ccc(-n2c(NCc3nc(-c4ccc(C)cc4)no3)nnc2-c2ccncc2)cc1 [Compound 19]	8800 nM	> 25 µM				44.1%														
COc1ccc(-n2c(SCc3nc(-c4ccc(Cl)cc4)no3)nnc2-c2ccncc2)cc1 [Compound 5]	950 nM	10 µM				10%														

The next lines start with results.

IC50 (canonical Wnt signaling [1])	GI50 (SW480 cells)	SMILES	Mean proliferation (control cell lines) (control cell lines)	Ratio of means (APC mutant cell lines)	Mean proliferation (APC mutant cell lines) (APC mutant cell lines)	activity at 10 µM (canonical Wnt signaling [2])	Cell proliferation (%) (LoVo)	Cell proliferation (%) (SW480)	Cell proliferation (%) (DLD-1)	Cell proliferation (%) (WiDr)	Cell proliferation (%) (HCT-8)	Cell proliferation (%) (HCT116)	Cell proliferation (%) (HeLa cells)	Cell proliferation (%) (COLO205)	Cell proliferation (%) (HT-29)	Cell proliferation (%) (HCT-15)	Cell proliferation (%) (LS174T)	Cell proliferation (%) (SW620)	Cell proliferation (%) (SW1463)	activity at 10 µM [3]
< 100 nM		Oc1nc(-c2ccc(C(F)(F)F)cc2)nc2c1CSCC2 [XAV939, reference compound]	99%	1.01	101%	7%	129%	103%	102%	94%	105%	109%	92%	116%	100%	90%	97%	102%	64%	
< 100 nM		Cc1ccc(-c2nnc(CSc3nnc(-c4ccncc4)n3-c3ccccc3Cl)o2)cc1 [compound 60]	95%	0.58	55%	17.3%	67%	59%	78%	70%	51%	87%	92%	53%	58%	54%	105%	50%	12%	49%
220 nM	9 µM	Cc1ccc(-c2nnc(CSc3nnc(-c4ccncc4)n3-c3ccccc3C)o2)cc1 [Compound 48]				9.9%														
2100 nM	10.5 µM	COc1ccc(-n2c(SCc3nc(-c4ccc(C)cc4)no3)nnc2-c2ccccc2OC)cc1 [Compound 8]				28.5%														

From US8883827B2, “Azole derivatives as WTN pathway inhibitors” (Oslo University Hospital HF, priority 2009, dated 2014)
